Values quoted from earlier work as cited in patent US20030096334A1, “Use of injectable dyes for staining an anterior lens capsule and vitreo-retinal interface” (priority 2001, published 2003).

Conditions: descriptive term only

solubility in water: very soluble
SMILES: Cc1cc(-c2ccc(/N=N/c3ccc4c(S(=O)(=O)O)cc(S(=O)(=O)O)c(N)c4c3O)c(C)c2)ccc1/N=N/c1ccc2c(S(=O)(=O)O)cc(S(=O)(=O)O)c(N)c2c1O [Evans Blue, Tetrasodium 6.6′-[3,3′-dimethylbiphenyl-4,4′-diylbis(azo)]bis[4-amino-t-hydroxynaphthalene-1,3-disulphonate]]
